Experimental data reported in ChEMBL document CHEMBL1146379, “Solid phase synthesis and SAR of small molecule agonists for the GPR40 receptor” (Bioorg Med Chem Lett, 2007).
Values after ≈ are worked out from the molar mass of the structure shown.

Target: T1, Free fatty acid receptor 1 (Homo sapiens, UniProt O14842)
Assay: Agonist activity at GPR40 receptor expressed in CHO cells by reporter gene assay
Type: functional, cell-based
Conditions: not given

T1 sequence (O14842 whole entry): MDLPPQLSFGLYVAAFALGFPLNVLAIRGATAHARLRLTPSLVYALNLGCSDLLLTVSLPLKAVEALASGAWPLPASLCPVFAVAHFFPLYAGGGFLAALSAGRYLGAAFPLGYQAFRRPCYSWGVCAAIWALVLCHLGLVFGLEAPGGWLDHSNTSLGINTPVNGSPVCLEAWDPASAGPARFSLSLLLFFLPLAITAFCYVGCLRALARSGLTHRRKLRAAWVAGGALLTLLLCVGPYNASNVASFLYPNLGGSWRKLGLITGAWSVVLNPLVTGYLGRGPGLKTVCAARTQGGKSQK

SMILES	%max [%]
O=C(O)Cc1ccc(NCc2ccc(-c3ccccc3)cc2)cc1	69
O=C(O)CCc1ccc(NCc2cc(C(F)(F)F)cnc2Cl)cc1	112
Cc1ccc(CNc2ccc(CCC(=O)O)cc2)cc1	152
O=C(O)C1CC1c1ccc(NCc2cccc(Oc3ccccc3)c2)cc1 (stereo unspecified)	74
NC(=O)c1cccc(CNc2ccc(CCC(=O)O)cc2)c1	18
O=C(O)CCc1ccc(NCc2cccc(F)c2)cc1	120
O=C(O)CCc1ccc(NCc2ccc(C(=O)O)cc2)cc1	9
CS(=O)(=O)Nc1cccc(CNc2ccc(CCC(=O)O)cc2)c1	9
CC(C(=O)O)c1ccc(NCc2ccc(-c3ccccc3)cc2)cc1 (stereo unspecified)	21
O=C(O)CCc1ccc(NCc2cccnc2)cc1	4
CC(C(=O)O)c1ccc(NCc2cccc(Oc3ccccc3)c2)cc1 (stereo unspecified)	34
O=C(O)C1CC1c1ccc(NCc2ccc(-c3ccccc3)cc2)cc1 (stereo unspecified)	80
O=C(O)CCc1ccc(NCc2ccccc2)cc1	144
O=C(O)CCc1ccc(NCc2ccc(Oc3ccccc3)cc2)cc1	139
O=C(O)CCc1ccc(NCc2ncc[nH]2)cc1	4
O=C(O)CCc1ccc(NCc2ccc(-c3ccccc3)cc2)cc1	111
O=C(O)CCc1ccc(NCc2ccc(C(F)(F)F)cc2)cc1	133

SMILES	%max [%]
O=C(O)CCc1cccc(NCc2cccc(Oc3ccccc3)c2)c1	148
O=C(O)CCc1ccc(NCc2ccc(Cl)cc2)cc1	111
O=C(O)CCc1ccc(NCc2ccc(Cl)c(Cl)c2)cc1	117
O=C(O)CCc1ccc(NCc2cccc(Br)c2)cc1	120
O=C(O)CCc1ccc(NCc2ccccc2Cl)cc1	122
O=C(O)CCc1ccc(NCc2ccc3ccccc3c2)cc1	123
N#Cc1ccc(CNc2ccc(CCC(=O)O)cc2)cc1	49
O=C(O)CCCc1ccc(NCc2ccc(-c3ccccc3)cc2)cc1	62
O=C(O)CCc1cccc(NCc2ccc(-c3ccccc3)cc2)c1	160
O=C(O)CCCc1ccc(NCc2cccc(Oc3ccccc3)c2)cc1	74
O=C(O)CCc1ccc(NCc2ccc3c(c2)OCO3)cc1	141
COc1ccc(CNc2ccc(CCC(=O)O)cc2)cc1	159
O=C(O)Cc1ccc(NCc2cccc(Oc3ccccc3)c2)cc1	32
CN(C)Cc1ccc(CNc2ccc(CCC(=O)O)cc2)cc1	12
O=C(O)CCc1ccc(NCc2ccc(Cl)s2)cc1	143
O=C(O)CCc1ccc(NCc2ccc(O)cc2)cc1	37

Target: T1, Free fatty acid receptor 1
Assay: Agonist activity at GPR40 receptor
Type: functional
Conditions: not given

SMILES	EC50 [µM]
O=C(O)Cc1ccc(NCc2ccc(-c3ccccc3)cc2)cc1	12.3
O=C(O)CCc1ccc(NCc2cc(C(F)(F)F)cnc2Cl)cc1	5.01
Cc1ccc(CNc2ccc(CCC(=O)O)cc2)cc1	3.98
O=C(O)C1CC1c1ccc(NCc2cccc(Oc3ccccc3)c2)cc1 (stereo unspecified)	0.0501
O=C(O)CCc1ccc(NCc2cccc(F)c2)cc1	5.01
CC(C(=O)O)c1ccc(NCc2cccc(Oc3ccccc3)c2)cc1 (stereo unspecified)	16.6
O=C(O)C1CC1c1ccc(NCc2ccc(-c3ccccc3)cc2)cc1 (stereo unspecified)	0.0398
O=C(O)CCc1ccc(NCc2ccccc2)cc1	7.94
O=C(O)CCc1ccc(NCc2ccc(Oc3ccccc3)cc2)cc1	0.195
O=C(O)CCc1ccc(NCc2ccc(-c3ccccc3)cc2)cc1	0.251
O=C(O)CCc1cccc(NCc2cccc(Oc3ccccc3)c2)c1	0.398
O=C(O)CCc1ccc(NCc2ccc(Cl)cc2)cc1	1
O=C(O)CCc1ccc(NCc2ccc(Cl)c(Cl)c2)cc1	0.251
O=C(O)CCc1ccc(NCc2cccc(Br)c2)cc1	0.794
O=C(O)CCc1ccc(NCc2ccccc2Cl)cc1	3.98
O=C(O)CCc1ccc(NCc2ccc3ccccc3c2)cc1	0.794
O=C(O)CCCc1ccc(NCc2ccc(-c3ccccc3)cc2)cc1	1.58
O=C(O)CCc1cccc(NCc2ccc(-c3ccccc3)cc2)c1	0.501
O=C(O)CCCc1ccc(NCc2cccc(Oc3ccccc3)c2)cc1	3.16
COc1ccc(CNc2ccc(CCC(=O)O)cc2)cc1	1.26
O=C(O)Cc1ccc(NCc2cccc(Oc3ccccc3)c2)cc1	3.98

Tested on: not listed separately
Assay: Solubility at pH 7.4
Type: physicochemical
Conditions: buffer

SMILES	solubility [µg/mL]
O=C(O)CCc1ccc(NCc2ccc(Cl)cc2)cc1	830 (≈ 2860 µM)

Tested on: not listed separately
Assay: Distribution coefficient, log D at pH 7.4
Type: physicochemical
Conditions: octanol/water

SMILES	logD
O=C(O)CCc1ccc(NCc2ccc(Cl)cc2)cc1	0.98
